Measurements from patent US10201533B2, “Substituted quinolizine derivatives useful as HIV integrase inhibitors” (priority 2013, dated 2019).
Read-outs that look alike come from different tables or passages of the source.

System: HIV-1 (NL4-3 strain)
Experiment: microbe, parasite or virus in culture
Type: cell-based
Conditions: MT4-GFP cells infected with HIV-1 NL4-3, IP or IC50 from 4-parameter dose response curve
[1] = Human immunodeficiency virus 1, NL43, 0% normal human serum (NHS), read-out: WILD TYPE CELL ASSAY Viking IP (0% NHS)
[2] = Human immunodeficiency virus 1, NL43, 100% normal human serum (NHS), read-out: WILD TYPE CELL ASSAY Viking IP (100% NHS)

SMILES | IC50 [1] [nM] | IC50 [2] [nM] | IC50 (0% normal human serum (NHS), read-out: WILD TYPE CELL ASSAY Viking IP (0% NHS)) [nM] | IC50 (100% normal human serum (NHS), read-out: WILD TYPE CELL ASSAY Viking IP (100% NHS)) [nM]
CC1(C)CCC[C@]2(C)C(=O)c3c(O)c(=O)c(C(=O)NCc4ccc(F)cc4F)cn3C[C@]12O [Compound 108] | 2 | 105 |  | 
CC1(C)CCC[C@@]2(C)C(=O)c3c(O)c(=O)c(C(=O)NCc4ccc(F)cc4F)cn3C[C@@]12O [Compound 109] | 3.2 | 714 |  | 
COCO[C@@]12CCCC[C@]1(C)C(=O)c1c(O)c(=O)c(C(=O)NCc3ccc(F)cc3F)cn1C2 [Compound 110] | 2.1 | 140 |  | 
COCO[C@]12CCCC[C@@]1(C)C(=O)c1c(O)c(=O)c(C(=O)NCc3ccc(F)cc3F)cn1C2 [Compound 111] | 3 | 858 |  | 
CO[C@@]12CCCC[C@]1(C)C(=O)c1c(O)c(=O)c(C(=O)NCc3ccc(F)cc3F)cn1C2 [Compound 112] | 0.65 | 4110 |  | 
CO[C@]12CCCC[C@@]1(C)C(=O)c1c(O)c(=O)c(C(=O)NCc3ccc(F)cc3F)cn1C2 [Compound 113] | 1.3 | > 8000 |  | 
COCCO[C@@]12CCCC[C@]1(C)C(=O)c1c(O)c(=O)c(C(=O)NCc3ccc(F)cc3F)cn1C2 [Compound 114] | 1.9 | 137 |  | 
COCCO[C@]12CCCC[C@@]1(C)C(=O)c1c(O)c(=O)c(C(=O)NCc3ccc(F)cc3F)cn1C2 [Compound 115] | 1.4 | 225 |  | 
COCCCO[C@@]12CCCC[C@]1(C)C(=O)c1c(O)c(=O)c(C(=O)NCc3ccc(F)cc3F)cn1C2 [Compound 116] | 2.3 | 256 |  | 
COCCCO[C@]12CCCC[C@@]1(C)C(=O)c1c(O)c(=O)c(C(=O)NCc3ccc(F)cc3F)cn1C2 [Compound 117] | 2.5 | 1440 |  | 
CO[C@@]12CCCCC[C@]1(C)C(=O)c1c(O)c(=O)c(C(=O)NCc3ccc(F)cc3F)cn1C2 [Compound 118] | 1.4 | 873 |  | 
CO[C@]12CCCCC[C@@]1(C)C(=O)c1c(O)c(=O)c(C(=O)NCc3ccc(F)cc3F)cn1C2 [Compound 119] | 2.1 | 2060 |  | 
CC[C@]12CCCO[C@@H]1Cn1cc(C(=O)NCc3ccc(F)cc3F)c(=O)c(O)c1C2=O [Compound 120] | 0.8 | 116 |  | 
C[C@]12CCCN[C@H]1Cn1cc(C(=O)NCc3ccc(F)cc3F)c(=O)c(O)c1C2=O [Compound 121] | 2.6 | 62 |  | 
C[C@]12CCCN[C@H]1Cn1cc(C(=O)NCc3ccc(F)cc3F)c(=O)c(O)c1C2=O [Compound 122] |  |  | 3.3 | 35
CN1CCC[C@]2(C)C(=O)c3c(O)c(=O)c(C(=O)NCc4ccc(F)cc4F)cn3C[C@H]12 [Compound 124] | 3.2 | 53 |  | 
